Assays:
CCRF-CEM cells = experiment: Cell Culture Study I (MTX cytotoxicity, alamarBlue); type: cell-based, human
Description: In this study, CCRF-CEM cells purchased from ATCC were cultured and then 12 tubes containing approximately 10^6 cells each treated for 72 hours with media (Group1), MTX 0.03 μM (Group2), MTX+Leucovorin 1 μM (Group3), MTX+Leucovorin 10 μM (Group4), MTX+Leucovorin 100 μM (GroupS), MTX+TK-112690 1 μM (Group6), MTX+TK-112690 10 μM (Group7) and MTX+TK-112690 100 μM (Group8). […] Viability was measured as percent reduction of alamarBlue absorbance.
The tumor cell line CCR-CEM (human T-cell acute lymphoblastic leukemia) is obtained from American Type Culture Collection (CRL-1593.2) and cultured in accordance with the product information sheet with the following exceptions: 55.3 cm^2 Petri dishes are used instead of 75 cm^2 culture flasks, and 1% penicillin-streptomycin solution (HyClone SV30010) and 1% GlutaMAX™ (Gibco 35050) are added to the culture medium.
TK-112690, the representative 2,2′-anhydropyrimidine test article, is dissolved in 40% DMSO, sterile filtered then diluted with sterile distilled water to obtain initial working solutions of 10, 100 and 1000 μM. In testing, a 100 fold dilution is made in culture media to give final assay concentrations of 0.1, 1.0 and 10.0 μM. MTX (SAFC Biosciences M8407) is dissolved in sterile distilled water and 5 N NaOH then sterile filtered. The final pH of the stock solution is 7.8 and working solutions are made with sterile distilled water for final assay concentrations of 30, 3.0, 0.3, 0.03 and 0.003 μM. Leucovorin (Sigma F-7878) is dissolved in sterile distilled water, sterile filtered and diluted with sterile distilled water for final assay concentrations of 0.1, 1.0 and 10.0 μM.
Aliquots of 100 μL of cell suspension are plated in 96 well microtiter plates (Corning costar 3595) and placed in an atmosphere of 5% CO2 at 37° C. (Fisher Scientific Isotemp 3500 CO2 Incubator). After 24 hours, 100 μL of growth medium [RPMI-1640 w/L-glutamine (Cambrex 12-702Q) fortified with sodium pyruvate (HyClone SH30239.01), fetal bovine serum (SAFC Biosciences 12107C) and HEPES buffer (Gibco 15630)] and 2 μL of test solution or vehicle are added respectively per well and the plates incubated for an additional 72 hour incubation. MTX is evaluated at concentrations of 0.003, 0.03, 0.30 and 3.0 μM alone or in combination with either a 2,2′-anhydropyrimidine test article or Leucovorin at concentrations of 0.1, 1.0, 10.0 μM. At the end of incubation, the efficacy of anti-cell proliferation is determined by optical absorbance at A=570 and 600 nm [Spectramax 250 (Molecular Devices)] in accordance with the standard alamarBlue™ (Biosource) protocol.
Group 1 is the cell control (media treated). Group 2 corresponds to cells treated with 0.03 μM MTX. Group 3 are cells treated with 1.0 μM Leucovorin. Group 4 are cells treated with 0.1 μM Leucovorin. […]

[1] = Mouse Study VI (plasma uridine and TK-112690 following TK-112690 treatment); type: in vivo, CD-1 female mice
Description: In this study, CD-1 female mice were injected ip with 120 mg/kg TK-112690 and plasma from the animals analyzed by HPLC using UV detection for TK-112690 and uridine. Concentrations of uridine and TK-112690 in plasma samples collected 0.08, 0.50, 1, 2, 4 or 12 hours post TK-112690 injection were determined by HPLC using UV detection. […] An increase in plasma uridine was noted almost immediately following administration of TK-112690. At 0.5 hour post TK-112690 dose, a 100 μg/mL plasma concentration TK-112690 is associated with a plasma uridine concentration of approximately 2 μg/mL of uridine (baseline uridine concentration approximately 0.5 μg/mL). As expected, inhibition of UPase by TK-112690 results in elevation of plasma uridine.
Plasma uridine concentration was determined by HPLC using UV detectionafter animals were treated with TK-112690 as follows. TK-112690 was dissolved in PBS to achieve a concentration of 500 mg/mL. CD-1 female mice were injected ip with a range of TK-112690 doses (0, 15, 30, 60 and 120 mg/kg) and plasma from the animals analyzed for TK-112690 uridine concentrations expected to be elevated through UPase inhibition by TK-112690. Plasma uridine concentrations were determined from plasma samples collected 0.08, 0.50, 1, 2, 4 or 12 hours post TK-112690 injection.
HPLC analysis was done at room temperature using a ThermoFinnigan Spectra System equipped with degasser, pump, autosampler and UV detector. Chromatograms will be constructed from a chart recorder equipped with a pen. […]
The micromolar concentration of plasma uridine was determined by linear equation (y=mx+b) generated from uridine and 5-FU calibration curve. The y value is calculated by taking ratio of peak heights (mm) of uridine and 5-FU. All peak heights from HPLC chromatograms were measured in millimeters using a ruler.
An identical approach was employed to quantitate TK-112690 in the samples except the response for TK-112690 was attenuated by a response factor determined from the injection into the HPLC of identical amounts of TK-112690 and uridine, […]

## Cc1cn2c(nc1=O)O[C@H]1[C@H](O)[C@@H](CO)O[C@H]12 [TK-112690, 2,2′-anhydro-5-methyluridine]
CCRF-CEM cells; 0.03 μM MTX + TK-112690, 72 hours, p<0.844, 0.918, 1.000
  cell viability, MTX+TK-112690 versus MTX alone: not different
CCRF-CEM cells; without MTX, 72 hours
  cell viability, test article alone versus control: not statistically different than control
[1]; 0, 15, 30, 60 and 120 mg/kg ip
  dose dependence of plasma concentrations of TK-112690: increased with increasing doses
[1]; 0.5 hour post TK-112690 dose, at 100 μg/mL plasma TK-112690, baseline approximately 0.5 μg/mL
  plasma uridine concentration: approximately 2 μg/mL
[1]; female, CD-1, plasma, 120 mg/kg, 0.5 hour post TK-112690 dose, ip, mouse
  concentration at 0.5 h: 100 µg/mL
